Values quoted from earlier work in EP0353388A2, “Floor treatment product” (DYNA-5, INC., priority 1988, dated 1990).

Conditions: first dissociation constant of the acid

Row | first pK value (pK^I) | SMILES
1 | 2.00 | O=C(O)CN(CCN(CC(=O)O)CC(=O)O)CC(=O)O [ethylenediaminetetraacetic acid]
2 | 1.25 | O=C(O)C(=O)O [oxalic acid]
